Where two headings read alike, the source gives them in different places.
Tests used:
[1] = target: T1, human α1G T-type channels (Homo sapiens, UniProt O43497); experiment: T-type calcium channel block, whole-cell patch clamp in HEK cell lines; format: cell-based; conditions: HEK cells
T1 construct: expressed in transfected cells; host or cells: HEK cell lines
Protocol: Standard patch-clamp techniques were employed to identify blockers of T-type currents. Briefly, previously described HEK cell lines stably expressing human α1G T-type channels were used for all the recordings (passage #: 4-20, 37° C., 5% CO2). To obtain T-type currents, plastic dishes containing semi-confluent cells were positioned on the stage of a ZEISS AXIOVERT S100 microscope after replacing the culture medium with external solution (see below). Whole-cell patches were obtained using pipettes (borosilicate glass with filament, O.D.: 1.5 mm, I.D.: 0.86 mm, 10 cm length), fabricated on a SUTTER P-97 puller with resistance values of ˜5 M• (see below for internal solution).
In the non-inactivating protocol, the holding potential is set at −110 mV and with a pre-pulse at −100 mV for 1 second prior to the test pulse at −40 mV for 50 ms. […]
Test compounds were dissolved in external solution, 0.1-0.01% DMSO. After ˜10 min rest, they were applied by gravity close to the cell using a WPI microfil tubing. The “non-inactivated” pre-pulse was used to examine the resting block of a compound. The “inactivated” protocol was employed to study voltage-dependent block. However, the initial data shown below were mainly obtained using the non-inactivated protocol only. IC50 values are shown for various compounds of the invention in Table 5.

[2] = target: T2, rat brain N-type calcium channel subunits (α1B+α2δ+β1b cDNA subunits) (Rattus norvegicus, UniProt Q02294); experiment: N-type calcium channel block, whole cell patch clamp in transfected HEK 293 cells; format: cell-based; conditions: holding potential −80 mV to +10 mV
T2 construct: expressed in transfected cells; host or cells: HEK 293
T2 sequence (Q02294 whole entry): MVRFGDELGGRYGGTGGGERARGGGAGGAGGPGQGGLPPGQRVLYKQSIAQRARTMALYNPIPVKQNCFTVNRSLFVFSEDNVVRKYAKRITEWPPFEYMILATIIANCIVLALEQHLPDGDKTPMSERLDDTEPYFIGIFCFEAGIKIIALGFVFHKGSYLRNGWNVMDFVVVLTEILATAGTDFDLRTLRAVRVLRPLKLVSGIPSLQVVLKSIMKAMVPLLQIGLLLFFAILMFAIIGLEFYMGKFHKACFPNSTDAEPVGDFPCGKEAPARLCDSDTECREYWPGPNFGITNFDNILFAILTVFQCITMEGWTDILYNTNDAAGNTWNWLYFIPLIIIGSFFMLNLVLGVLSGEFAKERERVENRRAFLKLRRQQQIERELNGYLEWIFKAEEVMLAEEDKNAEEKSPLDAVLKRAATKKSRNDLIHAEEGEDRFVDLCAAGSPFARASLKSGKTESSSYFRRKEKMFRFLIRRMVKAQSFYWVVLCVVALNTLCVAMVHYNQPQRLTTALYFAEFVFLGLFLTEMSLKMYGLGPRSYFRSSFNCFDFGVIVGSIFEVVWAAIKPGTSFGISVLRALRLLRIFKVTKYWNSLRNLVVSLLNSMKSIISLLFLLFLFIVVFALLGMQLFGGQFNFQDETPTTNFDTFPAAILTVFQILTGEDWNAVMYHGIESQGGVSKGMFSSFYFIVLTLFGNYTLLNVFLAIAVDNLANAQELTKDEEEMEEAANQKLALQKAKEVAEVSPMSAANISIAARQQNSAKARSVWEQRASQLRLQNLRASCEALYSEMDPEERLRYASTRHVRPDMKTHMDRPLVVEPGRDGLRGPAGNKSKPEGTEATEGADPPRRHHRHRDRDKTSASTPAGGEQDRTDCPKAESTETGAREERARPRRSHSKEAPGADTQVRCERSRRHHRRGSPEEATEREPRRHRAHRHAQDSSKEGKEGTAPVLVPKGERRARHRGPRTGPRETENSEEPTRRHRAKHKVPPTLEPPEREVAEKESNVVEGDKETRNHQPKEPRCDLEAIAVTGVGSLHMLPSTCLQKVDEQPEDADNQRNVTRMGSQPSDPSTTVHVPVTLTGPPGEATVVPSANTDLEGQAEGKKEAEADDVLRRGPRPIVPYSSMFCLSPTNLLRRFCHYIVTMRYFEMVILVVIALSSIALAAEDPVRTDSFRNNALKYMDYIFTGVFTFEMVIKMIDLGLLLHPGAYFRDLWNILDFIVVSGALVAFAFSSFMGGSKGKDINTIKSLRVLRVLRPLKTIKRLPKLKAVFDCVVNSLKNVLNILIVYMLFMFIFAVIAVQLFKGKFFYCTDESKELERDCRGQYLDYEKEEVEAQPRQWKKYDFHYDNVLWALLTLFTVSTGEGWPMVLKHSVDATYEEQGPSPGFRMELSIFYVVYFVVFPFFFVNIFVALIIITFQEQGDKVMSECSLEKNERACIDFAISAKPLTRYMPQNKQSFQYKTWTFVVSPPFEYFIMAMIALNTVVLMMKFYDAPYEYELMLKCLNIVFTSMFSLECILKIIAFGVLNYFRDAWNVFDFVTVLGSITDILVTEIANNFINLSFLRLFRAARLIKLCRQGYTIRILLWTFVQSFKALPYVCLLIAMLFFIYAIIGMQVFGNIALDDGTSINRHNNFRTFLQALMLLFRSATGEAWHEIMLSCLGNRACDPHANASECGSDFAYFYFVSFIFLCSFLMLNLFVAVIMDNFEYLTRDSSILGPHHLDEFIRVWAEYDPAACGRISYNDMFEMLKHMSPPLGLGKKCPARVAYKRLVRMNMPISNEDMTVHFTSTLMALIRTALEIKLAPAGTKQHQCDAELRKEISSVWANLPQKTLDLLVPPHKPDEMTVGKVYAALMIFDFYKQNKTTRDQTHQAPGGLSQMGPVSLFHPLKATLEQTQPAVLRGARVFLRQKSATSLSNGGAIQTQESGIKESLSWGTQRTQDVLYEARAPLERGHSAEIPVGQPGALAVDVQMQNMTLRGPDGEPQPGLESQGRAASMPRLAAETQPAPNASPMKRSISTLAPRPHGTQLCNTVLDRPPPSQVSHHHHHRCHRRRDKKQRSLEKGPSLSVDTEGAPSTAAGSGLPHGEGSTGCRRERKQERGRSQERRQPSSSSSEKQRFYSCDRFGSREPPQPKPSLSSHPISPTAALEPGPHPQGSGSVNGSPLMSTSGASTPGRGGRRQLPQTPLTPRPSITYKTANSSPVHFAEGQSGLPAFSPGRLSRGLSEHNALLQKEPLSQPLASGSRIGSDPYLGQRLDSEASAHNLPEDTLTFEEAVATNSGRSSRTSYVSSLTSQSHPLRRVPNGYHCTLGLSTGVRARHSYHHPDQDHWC
Protocol: N-type calcium channel blocking activity was assayed in human embryonic kidney cells, HEK 293, stably transfected with the rat brain N-type calcium channel subunits (α1B+α2δ+β1b cDNA subunits). Alternatively, N-type calcium channels (α1B+α2δ+β1b cDNA subunits), L-type channels (α1C+α2δ+β1b cDNA subunits) and P/Q-type channels (α1A+α2δ+β1b cDNA subunits) were transiently expressed in HEK 293 cells. Briefly, cells were cultured in Dulbecco's modified eagle medium (DMEM) supplemented with 10% fetal bovine serum, 200 U/ml penicillin and 0.2 mg/ml streptomycin at 37° C. with 5% CO2. At 85% confluency cells were split with 0.25% trypsin/1 mM EDTA and plated at 10% confluency on glass coverslips. At 12 hours the medium was replaced and the cells transiently transfected using a standard calcium phosphate protocol and the appropriate calcium channel cDNA's. Fresh DMEM was supplied and the cells transferred to 28° C./5% CO2. Cells were incubated for 1 to 2 days prior to whole cell recording.
Whole cell patch clamp experiments were performed using an Axopatch 200B amplifier (Axon Instruments, Burlingame, Calif.) linked to a personal computer equipped with pCLAMP software. The external and internal recording solutions contained, respectively, 5 mM BaCl2, 10 mM MgCl2, 10 mM HEPES, 40 mM TEACl, 10 mM glucose, 87.5 mM CsCl (pH 7.2) and 108 mM CsMS, 4 mM MgCl2, 9 mM EGTA, 9 mM HEPES (pH 7.2). Currents were typically elicited from a holding potential of −80 mV to +10 mV using Clampex software (Axon Instruments). Typically, currents were first elicited with low frequency stimulation (0.067 Hz) and allowed to stabilize prior to application of the compounds. The compounds were then applied during the low frequency pulse trains for two to three minutes to assess tonic block, and subsequently the pulse frequency was increased to 0.2 Hz to assess frequency dependent block. Data were analyzed using Clampfit (Axon Instruments) and SigmaPlot 4.0 (Jandel Scientific).

[3] = tested on: T-type over L-type channels; conditions: literature statement (Heady et al. 2001); cited from earlier work
[4] = inactivation protocol (voltage-dependent block), read-out: IC50 @ −80 mV
[5] = non-inactivating protocol, pre-pulse −100 mV (resting block), read-out: IC50 @ −100 mV
[6] = low frequency stimulation 0.067 Hz (tonic block), read-out: IC50 @ 0.067 Hz
[7] = pulse frequency 0.2 Hz (frequency dependent block), read-out: IC50 @ 0.2 Hz

T1 sequence (O43497 whole entry): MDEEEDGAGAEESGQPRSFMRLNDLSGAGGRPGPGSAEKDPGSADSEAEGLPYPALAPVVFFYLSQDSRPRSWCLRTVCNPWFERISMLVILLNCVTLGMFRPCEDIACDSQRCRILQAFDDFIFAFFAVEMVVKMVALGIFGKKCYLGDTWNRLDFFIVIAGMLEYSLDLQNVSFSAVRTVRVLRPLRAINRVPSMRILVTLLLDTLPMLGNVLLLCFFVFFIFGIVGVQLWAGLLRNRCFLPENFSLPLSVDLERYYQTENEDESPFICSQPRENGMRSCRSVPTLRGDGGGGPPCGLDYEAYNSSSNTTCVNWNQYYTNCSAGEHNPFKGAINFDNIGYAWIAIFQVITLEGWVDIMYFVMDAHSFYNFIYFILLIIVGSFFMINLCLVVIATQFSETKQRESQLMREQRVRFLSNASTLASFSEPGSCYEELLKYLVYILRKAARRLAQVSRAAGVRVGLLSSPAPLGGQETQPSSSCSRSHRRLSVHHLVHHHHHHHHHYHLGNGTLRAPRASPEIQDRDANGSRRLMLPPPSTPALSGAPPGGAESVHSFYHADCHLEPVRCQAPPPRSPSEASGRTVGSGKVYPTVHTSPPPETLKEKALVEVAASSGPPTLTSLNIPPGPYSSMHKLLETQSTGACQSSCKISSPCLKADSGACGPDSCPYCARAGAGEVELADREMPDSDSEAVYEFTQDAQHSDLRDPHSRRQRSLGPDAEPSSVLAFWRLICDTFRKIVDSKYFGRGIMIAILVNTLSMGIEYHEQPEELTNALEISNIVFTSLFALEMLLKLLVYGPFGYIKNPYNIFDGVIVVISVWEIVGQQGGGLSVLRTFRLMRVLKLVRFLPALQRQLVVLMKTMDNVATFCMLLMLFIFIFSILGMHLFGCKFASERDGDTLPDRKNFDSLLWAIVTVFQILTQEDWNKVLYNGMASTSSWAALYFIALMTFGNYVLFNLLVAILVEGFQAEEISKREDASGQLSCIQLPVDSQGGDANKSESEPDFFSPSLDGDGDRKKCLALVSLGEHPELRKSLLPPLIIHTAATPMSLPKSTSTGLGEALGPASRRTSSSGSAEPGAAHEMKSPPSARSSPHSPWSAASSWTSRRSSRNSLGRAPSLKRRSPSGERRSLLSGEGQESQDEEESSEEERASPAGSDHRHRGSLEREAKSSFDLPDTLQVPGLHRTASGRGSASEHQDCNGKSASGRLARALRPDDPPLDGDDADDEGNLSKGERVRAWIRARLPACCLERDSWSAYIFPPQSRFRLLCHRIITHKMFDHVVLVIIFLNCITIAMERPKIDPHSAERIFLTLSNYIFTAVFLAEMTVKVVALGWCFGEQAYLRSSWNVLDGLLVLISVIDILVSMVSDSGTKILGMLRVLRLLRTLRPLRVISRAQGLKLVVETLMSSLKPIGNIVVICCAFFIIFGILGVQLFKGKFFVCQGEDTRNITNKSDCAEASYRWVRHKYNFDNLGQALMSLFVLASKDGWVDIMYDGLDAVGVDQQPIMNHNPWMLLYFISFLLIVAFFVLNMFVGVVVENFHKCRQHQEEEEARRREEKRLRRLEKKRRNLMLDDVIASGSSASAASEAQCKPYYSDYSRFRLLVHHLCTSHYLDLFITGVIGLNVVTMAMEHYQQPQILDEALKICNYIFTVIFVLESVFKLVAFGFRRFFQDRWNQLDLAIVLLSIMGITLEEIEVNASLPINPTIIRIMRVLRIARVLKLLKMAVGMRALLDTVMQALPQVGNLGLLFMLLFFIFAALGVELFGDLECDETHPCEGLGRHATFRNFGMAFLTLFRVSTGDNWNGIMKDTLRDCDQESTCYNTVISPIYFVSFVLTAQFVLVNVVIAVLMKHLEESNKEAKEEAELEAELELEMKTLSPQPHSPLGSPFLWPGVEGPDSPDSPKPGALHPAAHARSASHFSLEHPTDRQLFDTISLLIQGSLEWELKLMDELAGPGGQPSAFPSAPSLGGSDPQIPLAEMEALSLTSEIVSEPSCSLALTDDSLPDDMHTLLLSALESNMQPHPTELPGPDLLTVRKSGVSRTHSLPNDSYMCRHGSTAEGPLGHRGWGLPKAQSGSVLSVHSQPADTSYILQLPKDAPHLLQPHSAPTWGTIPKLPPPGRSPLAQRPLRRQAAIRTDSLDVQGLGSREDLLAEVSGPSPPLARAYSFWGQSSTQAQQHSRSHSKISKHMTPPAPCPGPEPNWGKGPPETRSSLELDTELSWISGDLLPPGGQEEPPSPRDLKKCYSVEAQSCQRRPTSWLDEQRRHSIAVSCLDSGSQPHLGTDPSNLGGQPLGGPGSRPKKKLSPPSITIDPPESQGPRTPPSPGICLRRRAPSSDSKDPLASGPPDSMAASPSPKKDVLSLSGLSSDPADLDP

Row | Compound | IC50 [1, 4] | IC50 [1, 5] | IC50 [2, 6] | IC50 [2, 7] | selective for T-type over L-type channels [3]
1 | Cc1ccc(C(c2ccccc2)N2CCN(C(=O)c3cc(-c4ccccc4F)no3)CC2)c(C)c1 (stereo not drawn) [Compound 11, (4-((2,4-dimethylphenyl)(phenyl)methyl)piperazin-1-yl)(3-(2-fluorophenyl)isoxazol-5-yl)methanone] | 2770 nM | 14800 nM | 2180 nM | 1130 nM | 
2 | O=C(CC(c1ccccc1)c1ccccc1)N1CCN(Cc2cc(-c3ccccc3)no2)CC1 [Compound 9, 3,3-diphenyl-1-(4-((3-phenylisoxazol-5-yl)methyl)piperazin-1-yl)propan-1-one] | 1700 nM | > 10000 nM | 2800 nM | 1200 nM | 
3 | Clc1ccc(C(c2ccccc2)N2CCN(Cc3cc(-c4ccccc4)no3)CC2)c(Cl)c1 (stereo not drawn) [Compound 14, 5-((4-((2,4-dichlorophenyl)(phenyl)methyl)piperazin-1-yl)methyl)-3-phenylisoxazole] | 5530 nM | > 16500 nM | 22200 nM | 2240 nM | 
4 | COc1ccccc1-c1cc(C(=O)N2CCN(C(c3ccccc3)c3ccccc3)CC2)on1 [Compound 4, (4-benzhydrylpiperazin-1-yl)(3-(2-methoxyphenyl)isoxazol-5-yl)methanone] |  |  | 2990 nM | 1490 nM | 
5 | Fc1ccccc1-c1cc(CN2CCN(C(c3ccccc3)c3ccc(Cl)cc3Cl)CC2)on1 (stereo not drawn) [Compound 16, 5-((4-((2,4-dichlorophenyl)(phenyl)methyl)piperazin-1-yl)methyl)-3-(2-fluorophenyl) isoxazole] |  |  | 3150 nM | 1960 nM | 
6 | Fc1ccccc1-c1cc(CN2CCN(C(c3ccccc3)c3ccccc3)CC2)on1 [Compound 6, 5-((4-benzhydry1piperazin-1-yl)methyl)-3-(2-fluorophenyl)isoxazole] |  |  | 3400 nM | 1100 nM | 
7 | COCC(=O)O[C@]1(CCN(C)CCCc2nc3ccccc3[nH]2)CCc2cc(F)ccc2[C@@H]1C(C)C [Mibefradil] |  |  |  |  | 10-30 fold
8 | O=C(c1cc(-c2ccccc2F)no1)N1CCN(C(c2ccccc2)c2ccc(Cl)cc2Cl)CC1 (stereo not drawn) [Compound 15, (4-((2,4-dichlorophenyl)(phenyl)methyl)piperazin-1-yl)(3-(2-fluorophenyl)isoxazol-5-yl)methanone] |  |  | 6470 nM | 3380 nM | 

Continued, in another order:

Row | IC50 [1, 4] | IC50 [1, 5] | IC50 [2, 6] | IC50 [2, 7] | Compound | selective for T-type over L-type channels [3]
9 | 830 nM | 3690 nM | 950 nM | 570 nM | Cc1ccc(C(c2ccccc2)N2CCN(Cc3cc(-c4ccccc4F)no3)CC2)c(C)c1 (stereo not drawn) [Compound 12, 5-((4-((2,4-dimethylphenyl)(phenyl)methyl)piperazin-1-yl)methyl)-3-(2-fluorophenyl)isoxazole] | 
10 | 350 nM | 1600 nM | 1700 nM | 670 nM | c1ccc(-c2cc(CN3CCN(C(c4ccccc4)c4ccccc4)CC3)on2)cc1 [Compound 2, 5-((4-benzhydrylpiperazin-1-yl)methyl)-3-phenylisoxazole] | 
11 |  |  | 680 nM | 340 nM | COc1ccccc1-c1cc(CN2CCN(C(c3ccccc3)c3ccccc3)CC2)on1 [Compound 5, 5-((4-benzhydry1piperazin-1-yl)methyl)-3-(2-methoxyphenyl)isoxazole] | 
12 |  |  | 800 nM | 370 nM | O=C(c1cc(-c2ccccc2F)no1)N1CCN(C(c2ccccc2)c2ccccc2)CC1 [Compound 3, (4-benzhydrylpiperazin-1-yl)(3-(2-fluorophenyl)isoxazol-5-yl)methanone] | 
13 | 1900 nM | > 10000 nM | 650 nM | 290 nM | O=C(c1cc(-c2ccccc2)no1)N1CCN(C(c2ccccc2)c2ccccc2)CC1 [Compound 1, (4-benzhydrylpiperazin-1-yl)(3-phenylisoxazol-5-yl)methanone] | 
14 |  |  | 600 nM | 290 nM | COc1ccccc1-c1cc(CN2CCN(C(=O)CC(c3ccccc3)c3ccccc3)CC2)on1 [Compound 8, 1-(4-((3-(2-methoxyphenyl)isoxazol-5-yl)methyl)piperazin-1-yl)-3,3-diphenylpropan-1-one] | 
15 |  |  | 520 nM | 330 nM | O=C(CC(c1ccccc1)c1ccccc1)N1CCN(Cc2cc(-c3ccccc3F)no2)CC1 [Compound 7, 1-(4-((3-(2-fluorophenyl)isoxazol-5-yl)methyl)piperazin-1-yl)-3,3-diphenylpropan-1-one] | 
16 | 2180 nM | 9210 nM | 1070 nM | 400 nM | Cc1ccc(C(c2ccccc2)N2CCN(Cc3cc(-c4ccccc4)no3)CC2)c(C)c1 (stereo not drawn) [Compound 10, 5-((4-((2,4-dimethylphenyl)(phenyl)methyl)piperazin-1-yl)methyl)-3-phenylisoxazole] | 

From US20090286806A1, “ISOXAZOLE DERIVATIVES AS CALCIUM CHANNEL BLOCKERS” (priority 2006, published 2009)
